Source: PMC4479019, “Atomistic design of microbial opsin-based blue-shifted optogenetics tools” (Nature Communications, 2015)

Assays:
Experiment in all cases: absorption spectrum of purified protein
Format in all cases: binding
Settings in all cases: covalent (protonated Schiff base); 1 M NaCl, 0.05% DDM, pH 7.0
GR = biological target: T1, GR (Gloeobacter violaceus, UniProt Q7NP59)
T1 construct: gene gll0198
T1 sequence (Q7NP59 1-298): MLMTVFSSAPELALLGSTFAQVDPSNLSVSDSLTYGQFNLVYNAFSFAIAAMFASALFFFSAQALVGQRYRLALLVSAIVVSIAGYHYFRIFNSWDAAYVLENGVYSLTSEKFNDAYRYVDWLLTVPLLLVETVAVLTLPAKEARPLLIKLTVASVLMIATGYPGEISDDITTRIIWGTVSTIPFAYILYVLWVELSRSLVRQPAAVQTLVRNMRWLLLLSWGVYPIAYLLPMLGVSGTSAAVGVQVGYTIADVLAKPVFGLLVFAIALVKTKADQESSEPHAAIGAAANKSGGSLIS

AR3 (archaerhodopsin-3) = biological target: T2, AR3 (archaerhodopsin-3) (Halorubrum sodomense, UniProt P96787, M128A/G132A/S151G/A225T)
T2 construct: gene aop3

HwBR = biological target: T3, HwBR (Haloquadratum walsbyi, UniProt Q18DH8)
T3 construct: gene bop1
T3 sequence (Q18DH8 7-254): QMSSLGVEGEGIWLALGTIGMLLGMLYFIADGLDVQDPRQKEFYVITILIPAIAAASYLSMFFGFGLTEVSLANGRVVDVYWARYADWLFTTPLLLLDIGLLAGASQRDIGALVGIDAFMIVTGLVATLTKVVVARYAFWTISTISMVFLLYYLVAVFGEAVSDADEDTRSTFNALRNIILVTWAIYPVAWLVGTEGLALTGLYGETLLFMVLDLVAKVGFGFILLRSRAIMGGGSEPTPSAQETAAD

T2 sequence (P96787 7-258 M128A/G132A/S151G/A225T): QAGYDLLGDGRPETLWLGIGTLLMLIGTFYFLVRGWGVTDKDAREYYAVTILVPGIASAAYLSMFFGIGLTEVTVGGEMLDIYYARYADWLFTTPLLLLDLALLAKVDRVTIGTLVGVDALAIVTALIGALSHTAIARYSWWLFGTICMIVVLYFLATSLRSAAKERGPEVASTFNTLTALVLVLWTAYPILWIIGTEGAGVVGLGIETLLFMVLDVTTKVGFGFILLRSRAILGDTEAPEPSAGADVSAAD

## CC1=C(/C=C/C(C)=C/C=C/C(C)=C/C=O)C(C)(C)CCC1 [all-trans retinal]
GR
  absorption spectrum of purified protein: Absorption spectra of wild-type and colour variants of HwBR (a) and GR (b)
AR3 (archaerhodopsin-3)
  absorption spectrum of purified protein: The M128A/G132A/S151G/A225T and M128A/S151A/A225T mutants slightly reduced the shifts
HwBR
  absorption spectrum of purified protein: Absorption spectra of wild-type and colour variants of HwBR (a) and GR (b)
